The values that follow come from PMC10615251 (Biochemistry, 2023).

In experiment [1] the test system is T1, UDP-α-D-glucuronate 6-decarboxylase (HS:15.19).
T1 construct: gene HS15.19
In words: anion exchange chromatography of UDP-xylose formed, […] nm. In kind it is biochemical, Campylobacter jejuni. The settings on record: 50 mM phosphate pH 6.5.

The subject of experiment [2] is T2, UDP-α-D-xylose 4-epimerase (HS:15.17).
T2 construct: gene HS15.17
The conditions noted are these: read-out: KUDP-xyl (apparent); 50 mM HEPES/KOH pH 8.0, 25 °C.

For experiment [3], the system named is T3, UDP-α-D-glucose 6-dehydrogenase (HS:15.18).
T3 construct: gene HS15.18
The conditions noted are these: read-out: KNAD (apparent); 1.0 mM UDP-D-glucose, 50 mM triethanolamine pH 8.7, 25 °C.

Structures are written as SMILES.

Take `O=C(O)[C@H]1O[C@H](OP(=O)(O)OP(=O)(O)OC[C@H]2O[C@@H](n3ccc(=O)[nH]c3=O)[C@H](O)[C@@H]2O)[C@H](O)[C@@H](O)[C@@H]1O` [compound 4, UDP-α-D-glucuronate]: the Km in experiment [1] (read-out: KUDP-glc (apparent), 0.30 mM NAD+) is 250 ± 30 µM.

Consider `O=c1ccn([C@@H]2O[C@H](COP(=O)(O)OP(=O)(O)O[C@H]3OC[C@@H](O)[C@H](O)[C@H]3O)[C@@H](O)[C@H]2O)c(=O)[nH]1` [compound 5, UDP-α-D-xylose], for which, in experiment [2], the Km is 125 ± 13 µM.

Take `NC(=O)c1ccc[n+]([C@@H]2O[C@H](COP(=O)(O)OP(=O)(O)OC[C@H]3O[C@@H](n4cnc5c(N)ncnc54)[C@H](O)[C@@H]3O)[C@@H](O)[C@H]2O)c1` [NAD^+]: the “Ka (activation constant, concentration at 1⁄2 saturation)” value in experiment [1] (2.5 mM UDP-D-glucuronate) stood at 17 ± 5 µM. Also, the Km in experiment [3] worked out at 120 ± 10 µM.
